Values joined by “and” are separate entries in the source; they are usually repeats but may differ in a detail not shown here. Identical values can stand only once.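 Following 48 hours of exposure in 96-well plates, responses at five concentrations were used to interpolate endpoints linearly. GI50 is the concentration that inhibits growth by half. Definition used: TGI = concentration required for complete inhibition of growth.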
test system: MDA-MB-468 breast; experiment: inhibition of tumour cell growth, NCI panel, 48 h

`C=C1C(=O)O[C@H]2[C@H]1CC/C(COC(=O)CSCC(=O)OC/C1=C/CC[C@@]3(C)O[C@H]3[C@H]3OC(=O)C(=C)[C@@H]3CC1)=C\CC[C@@]1(C)O[C@@H]21` and `C=C1C(=O)O[C@H]2[C@H]1CC/C(COC(=O)NCCc1c[nH]c3ccc(OC)cc13)=C\CC[C@@]1(C)O[C@@H]21` are within 1.5-fold of each other in GI50: 1.42 µM for the first, 1.19 µM for the second.

Going from `COc1ccc2c(c1)C(c1ccccc1Cl)=Nc1c(n[nH]c1C)N2` to `CC(=O)O/N=C1/C(c2c(O)[nH]c3cc(Br)ccc23)=Nc2ccccc21`, the GI50 falls from over 16.8 µM to 1.64 µM.

First: Cc1c(C)[n+](=O)c(C)c(C)n1[O-]
Second: Cc1c2c[n+](C(C)C)ccc2c(C)c2c1[nH]c1ccccc12
The GI50 of the first is higher: over 100 µM for the first, 0.312 µM for the second.

First: COc1cccc2c1C(=O)c1c(O)c3c(c(O)c1C2=O)C[C@@](O)(C(=O)CO)C[C@@H]3OC1C[C@H](N)[C@H](O)[C@H](C)O1 (stereo partly drawn)
Second: C=CC(=O)N[C@H]1CCOC[C@H]1Nc1ncc2cc(-c3c(Cl)c(OC)cc(OC)c3Cl)ccc2n1
The GI50 of the first is 360-fold lower: 0.0253 µM for the first, 9.16 µM for the second.

Compared with `COc1ccc(C(=O)c2cc3c(OC)c(OC)c(OC)cc3[nH]2)cc1`, `COc1cc(-c2nc3sc4c(c3c(=O)[nH]2)CCCCCC4)cc(OC)c1OC` is 3.9-fold lower in GI50: 2.64 µM for the first, 0.676 µM for the second.

`Cn1cc(-c2cnc3ccc4ccc(CS(=O)(=O)NCc5ccccn5)cc4c(=O)c3c2)cn1` and `c1cn2cc(-c3ccc4cn[nH]c4c3)nc(Nc3ccc(N4CCOCC4)cc3)c2n1` are within 1.5-fold of each other in GI50: 10.9 µM for the first, 8.59 µM for the second.

Going from `O=c1cc(-c2ccccc2)[nH]n1-c1nc2ccccc2[nH]1` to `O=C(O)c1cc2cc(OCc3ccccc3)c(OCc3ccccc3)cc2[nH]1`, the GI50 rises from 4.3 µM to 17.9 µM (4.2-fold).

Compared with `O=c1[nH]cnc2[nH]ncc12`, `COc1ccc2c(c1)C(=O)/C(=C/c1ncc([N+](=O)[O-])n1C)O2` is 89-fold lower in GI50: 152 µM for the first, 1.7 µM for the second.

First: C#CC(F)(F)[C@]1(O)CC[C@H]2[C@@H]3CCC4=CC(=O)CCC4=C3[C@@H](c3ccc(C(C)=O)cc3)C[C@@]21C
Second: N#CCc1ncc(-c2ccc(C(F)(F)F)cc2)c(NC2CCCCCC2)n1
The GI50 of the first is lower: 7.69 µM for the first, over 10 µM for the second.

Compared with `CSc1ccc2c3c(n(C[C@H](O)CO)c(=O)c2c1)-c1ccccc1C3=O`, `O=C(CCl)N1c2ccccc2Sc2ccc3ccccc3c21` is 5.3-fold lower in GI50: 1.87 µM for the first, 0.351 µM for the second.

Going from `CCCCCCCCCCCCSC(=N)N` to `COc1ccc2nc3cc(Cl)ccc3c(NCCCNCCC(C)O)c2c1` (stereo not drawn), the GI50 falls from 6.21 µM to 0.313 µM (20-fold).

First: CCN1c2ccccc2C(Cl)(c2ccc(N(C)C)cc2)c2ccccc21
Second: O=C(Nc1ccccc1O)c1ccc(Oc2cccc(C(=O)Nc3ccccc3O)c2)cc1
The GI50 of the first is 1.5-fold higher: 3.36 µM for the first, 2.17 µM for the second.

Going from `CC(C)NC(=O)OCc1c(COC(=O)NC(C)C)c(-c2ccc(Cl)cc2)n2c1CCC2` to `O=C(Nc1ccc(Cl)cc1)c1cc(-c2ccc(Cl)cc2)c2sc(=O)[nH]c2n1`, the GI50 rises from 0.928 µM to 1.73 µM (1.9-fold).

Compared with `NC1=NC(c2ccc(Cl)cc2)C2=C(N1)/C(=C/c1ccc(Cl)cc1)CCC2` (stereo not drawn), `O=C(N/N=C/c1ccc([N+](=O)[O-])cc1)c1ccc2nc(-c3ccc(Cl)cc3)[nH]c2c1` is 1.8-fold lower in GI50: 3.49 µM for the first, 1.97 µM for the second.

Going from `CCOP(=O)(OCC)OC[C@]12CCC(C)(C)C[C@H]1C1=CC[C@@H]3[C@@]4(C)C/C(=C\c5cccnc5)[C@H](OP(=O)(OCC)OCC)C(C)(C)[C@@H]4CC[C@@]3(C)[C@]1(C)CC2` to `COC(=O)[C@]12CC[C@@H](C)[C@H](C)[C@@H]1C1=CC[C@@H]3[C@@]4(C)C=C(O)C(=O)[C@@]5(C)COC(=C54)C[C@@]3(C)[C@]1(C)CC2`, the GI50 rises from 1.12 µM to 4.88 µM (4.4-fold).

Going from `COc1ccc(Cl)cc1NC(=O)C(Br)C(Br)C(=O)O` (stereo not drawn) to `O=C(N/N=C/c1ccccc1O)C(=O)Nc1ccc(F)cc1`, the GI50 rises from 0.567 µM to 4.41 µM (7.8-fold).

Going from `CN(C)C(=O)c1cc2cnc(Nc3ccc(-c4csc5c(=O)cc(N6CCOCC6)oc45)cc3)nc2n1C1CCCC1` to `CN1CCN(Cc2ccc(NC(=O)c3ccc(C#Cc4c(N)ncc5ccc(F)cc45)cc3)cc2C(F)(F)F)CC1`, the GI50 rises from 0.122 µM to 0.998 µM (8.2-fold).

Compared with `NS(=O)(=O)c1cccc(N=Cc2c(O)[nH]c3ccccc23)c1`, `O=Nc1ccc2ccccc2c1O` is lower in GI50: over 25 µM for the first, 13.4 µM for the second.

First: COc1cc(/C=C2\CN(C)C/C(=C\c3cc(CN4CCCCC4)c(O)c(OC)c3)C2=O)cc(CN2CCCCC2)c1O
Second: Cc1cc(Cc2cc(C)cc(C(C)(C)C)c2O)c(O)c(C(C)(C)C)c1
The GI50 of the first is 3-fold lower: 3.79 µM for the first, 11.4 µM for the second.

Going from `C/C=C/CC(C)C(O)C1C(=O)NC(CC)C(=O)N(C)CC(=O)N(C)C(CC(C)C)C(=O)NC(C(C)C)C(=O)N(C)C(CC(C)C)C(=O)NC(C)C(=O)NC(C)C(=O)N(C)C(CC(C)C)C(=O)N(C)C(CC(C)C)C(=O)N(C)C(C(C)C)C(=O)N1C` (stereo not drawn) to `O=C(Cc1cccc(OC(F)(F)F)c1)Nc1ccc(CCCCc2nnc(NC(=O)Cc3ccccn3)s2)nn1`, the GI50 rises from 0.872 µM to 7.69 µM (8.8-fold).

Going from `COc1ccccc1/C=N\N=C(N/N=C/c1ccccc1OC)N/N=C/c1ccccc1OC` to `O=C(Nc1ccc(Cl)c(C(F)(F)F)c1)Nc1ccc2c(ccn2C(=O)c2cccc(F)c2)c1`, the GI50 falls from 3.51 µM to 1.83 µM (1.9-fold).

`Cc1cc(C)c(O)c(CN(C)Cc2cc(Cl)cc(Cl)c2O)c1` was tested, and the GI50 was 2.83 µM.

`C=C1C(=O)O[C@H]2[C@H]1CC/C(COC(=O)CSCC(=O)OC/C1=C/CC[C@@]3(C)O[C@H]3[C@H]3OC(=O)C(=C)[C@@H]3CC1)=C\CC[C@@]1(C)O[C@@H]21` and `C=C1C(=O)O[C@H]2[C@H]1CC/C(COC(=O)NCCc1c[nH]c3ccc(OC)cc13)=C\CC[C@@]1(C)O[C@@H]21` are within 1.5-fold of each other in TGI: 3.5 µM for the first, 2.91 µM for the second.

First: COc1ccc2c(c1)C(c1ccccc1Cl)=Nc1c(n[nH]c1C)N2
Second: CC(=O)O/N=C1/C(c2c(O)[nH]c3cc(Br)ccc23)=Nc2ccccc21
The TGI of the first is higher: over 25 µM for the first, 3.22 µM for the second.

Compared with `Cc1c(C)[n+](=O)c(C)c(C)n1[O-]`, `Cc1c2c[n+](C(C)C)ccc2c(C)c2c1[nH]c1ccccc12` is lower in TGI: over 100 µM for the first, 1.97 µM for the second.

Going from `COc1cccc2c1C(=O)c1c(O)c3c(c(O)c1C2=O)C[C@@](O)(C(=O)CO)C[C@@H]3OC1C[C@H](N)[C@H](O)[C@H](C)O1` (stereo partly drawn) to `C=CC(=O)N[C@H]1CCOC[C@H]1Nc1ncc2cc(-c3c(Cl)c(OC)cc(OC)c3Cl)ccc2n1`, the TGI rises from 0.123 µM to 44.7 µM (360-fold).

Going from `COc1ccc(C(=O)c2cc3c(OC)c(OC)c(OC)cc3[nH]2)cc1` to `COc1cc(-c2nc3sc4c(c3c(=O)[nH]2)CCCCCC4)cc(OC)c1OC`, the TGI falls from over 100 µM to 3.01 µM.

`Cn1cc(-c2cnc3ccc4ccc(CS(=O)(=O)NCc5ccccn5)cc4c(=O)c3c2)cn1` and `c1cn2cc(-c3ccc4cn[nH]c4c3)nc(Nc3ccc(N4CCOCC4)cc3)c2n1` are within 1.5-fold of each other in TGI: 29 µM for the first, 32.4 µM for the second.

`O=c1cc(-c2ccccc2)[nH]n1-c1nc2ccccc2[nH]1` and `O=C(O)c1cc2cc(OCc3ccccc3)c(OCc3ccccc3)cc2[nH]1` are within 1.5-fold of each other in TGI: 45.9 µM for the first, 36.7 µM for the second.

Going from `O=c1[nH]cnc2[nH]ncc12` to `COc1ccc2c(c1)C(=O)/C(=C/c1ncc([N+](=O)[O-])n1C)O2`, the TGI falls from 2680 µM to 4.12 µM (650-fold).

`C#CC(F)(F)[C@]1(O)CC[C@H]2[C@@H]3CCC4=CC(=O)CCC4=C3[C@@H](c3ccc(C(C)=O)cc3)C[C@@]21C` and `N#CCc1ncc(-c2ccc(C(F)(F)F)cc2)c(NC2CCCCCC2)n1` cannot be ordered by TGI: 34.1 µM for the first, over 10 µM for the second.

Compared with `CSc1ccc2c3c(n(C[C@H](O)CO)c(=O)c2c1)-c1ccccc1C3=O`, `O=C(CCl)N1c2ccccc2Sc2ccc3ccccc3c21` is 4-fold lower in TGI: 5.78 µM for the first, 1.46 µM for the second.

Going from `CCCCCCCCCCCCSC(=N)N` to `COc1ccc2nc3cc(Cl)ccc3c(NCCCNCCC(C)O)c2c1` (stereo not drawn), the TGI falls from 20.5 µM to 1.78 µM (12-fold).

Compared with `CCN1c2ccccc2C(Cl)(c2ccc(N(C)C)cc2)c2ccccc21`, `O=C(Nc1ccccc1O)c1ccc(Oc2cccc(C(=O)Nc3ccccc3O)c2)cc1` is 1.9-fold lower in TGI: 15.5 µM for the first, 8.16 µM for the second.

Compared with `CC(C)NC(=O)OCc1c(COC(=O)NC(C)C)c(-c2ccc(Cl)cc2)n2c1CCC2`, `O=C(Nc1ccc(Cl)cc1)c1cc(-c2ccc(Cl)cc2)c2sc(=O)[nH]c2n1` is 2.6-fold higher in TGI: 2.5 µM for the first, 6.62 µM for the second.

Compared with `NC1=NC(c2ccc(Cl)cc2)C2=C(N1)/C(=C/c1ccc(Cl)cc1)CCC2` (stereo not drawn), `O=C(N/N=C/c1ccc([N+](=O)[O-])cc1)c1ccc2nc(-c3ccc(Cl)cc3)[nH]c2c1` is 2.9-fold lower in TGI: 13.9 µM for the first, 4.79 µM for the second.

Compared with `CCOP(=O)(OCC)OC[C@]12CCC(C)(C)C[C@H]1C1=CC[C@@H]3[C@@]4(C)C/C(=C\c5cccnc5)[C@H](OP(=O)(OCC)OCC)C(C)(C)[C@@H]4CC[C@@]3(C)[C@]1(C)CC2`, `COC(=O)[C@]12CC[C@@H](C)[C@H](C)[C@@H]1C1=CC[C@@H]3[C@@]4(C)C=C(O)C(=O)[C@@]5(C)COC(=C54)C[C@@]3(C)[C@]1(C)CC2` is 8-fold higher in TGI: 2.5 µM for the first, 19.9 µM for the second.

Going from `COc1ccc(Cl)cc1NC(=O)C(Br)C(Br)C(=O)O` (stereo not drawn) to `O=C(N/N=C/c1ccccc1O)C(=O)Nc1ccc(F)cc1`, the TGI rises from 2.27 µM to over 100 µM.

First: CN(C)C(=O)c1cc2cnc(Nc3ccc(-c4csc5c(=O)cc(N6CCOCC6)oc45)cc3)nc2n1C1CCCC1
Second: CN1CCN(Cc2ccc(NC(=O)c3ccc(C#Cc4c(N)ncc5ccc(F)cc45)cc3)cc2C(F)(F)F)CC1
The TGI of the first is 5-fold lower: 0.397 µM for the first, 1.97 µM for the second.

`NS(=O)(=O)c1cccc(N=Cc2c(O)[nH]c3ccccc23)c1` and `O=Nc1ccc2ccccc2c1O` cannot be ordered by TGI: over 25 µM for the first, 34.9 µM for the second.

First: COc1cc(/C=C2\CN(C)C/C(=C\c3cc(CN4CCCCC4)c(O)c(OC)c3)C2=O)cc(CN2CCCCC2)c1O
Second: Cc1cc(Cc2cc(C)cc(C(C)(C)C)c2O)c(O)c(C(C)(C)C)c1
The TGI of the first is 1.6-fold lower: 14.7 µM for the first, 24.2 µM for the second.

First: C/C=C/CC(C)C(O)C1C(=O)NC(CC)C(=O)N(C)CC(=O)N(C)C(CC(C)C)C(=O)NC(C(C)C)C(=O)N(C)C(CC(C)C)C(=O)NC(C)C(=O)NC(C)C(=O)N(C)C(CC(C)C)C(=O)N(C)C(CC(C)C)C(=O)N(C)C(C(C)C)C(=O)N1C (stereo not drawn)
Second: O=C(Cc1cccc(OC(F)(F)F)c1)Nc1ccc(CCCCc2nnc(NC(=O)Cc3ccccn3)s2)nn1
The TGI of the first is 8.8-fold lower: 6.63 µM for the first, 58.5 µM for the second.

First: COc1ccccc1/C=N\N=C(N/N=C/c1ccccc1OC)N/N=C/c1ccccc1OC
Second: O=C(Nc1ccc(Cl)c(C(F)(F)F)c1)Nc1ccc2c(ccn2C(=O)c2cccc(F)c2)c1
The TGI of the first is 2.2-fold higher: 10.7 µM for the first, 4.96 µM for the second.

In the case of `Cc1cc(C)c(O)c(CN(C)Cc2cc(Cl)cc(Cl)c2O)c1`, the TGI is reported as 11.8 µM.

In the case of `Cc1cc(Nc2ncnc3ccc(NC4=NC(C)(C)CO4)cc23)ccc1Oc1ccn2ncnc2c1`, the GI50 is reported as 1.78 µM and 2.18 µM.

For `Cc1cc(Nc2ncnc3ccc(NC4=NC(C)(C)CO4)cc23)ccc1Oc1ccn2ncnc2c1`, the TGI was 12.7 µM and > 10 µM.
